Results: the OPERA property sets (Mansouri et al. 2018)

`O=C(C=Cc1ccc(O)c(O)c1)NCc1ccccc1` showed a logP of 2.48. Work on `CCCC(=O)C=Cc1ccc(O)c(O)c1` yielded a logP of 2.61. `COc1ccc(CNC(=O)C=Cc2ccc(O)c(O)c2)cc1OC` showed a logP of 1.99. Work on `CCOc1ccc2cc(O)c(O)cc2c1` yielded a logP of 2.7. Work on `CCCCCCNC(=O)C=Cc1ccc(O)c(O)c1` yielded a logP of 3.37. Compound `CCCCc1ccc(O)c(O)c1` has a logP of 2.96. `COc1ccc(NC(=O)C=Cc2ccc(O)c(O)c2)cc1OC` showed a logP of 2.3. For `COc1ccc(CCNC(=O)C=Cc2ccc(O)c(O)c2)cc1OC`, the logP was 2.07. `CCCCC=Cc1ccc(O)c(O)c1` showed a logP of 3.82. Compound `O=C(C=Cc1ccc(O)c(O)c1)NCCc1ccccc1` has a logP of 2.72. For `CCc1ccc2cc(O)c(O)cc2c1`, the logP was 3.25. Work on `O=C(C=Cc1ccc(O)c(O)c1)CCCCCO` yielded a logP of 1.67. Compound `CCCCCCNC(=O)c1ccc(O)c(O)c1` has a logP of 2.71. Compound `CCCCCC(O)c1ccc(O)c(O)c1` (stereo unspecified) has a logP of 2.32. Compound `CCCCNC(=O)c1ccc2cc(O)c(O)cc2c1` has a logP of 2.72. Work on `CCCCOC(=O)/C=C/c1ccc(O)c(O)c1` yielded a logP of 3.53.
